What is called IC50 is the concentration that inhibits the measured activity by half. A lower IC50 goes with inhibition by little substance.

The values below come from ChEMBL document CHEMBL1129315, “Studies on selectin blockers. 2. Novel selectin blocker as potential therapeutics for inflammatory disorders” (J Med Chem, 1996).

One test deals with T1, L-selectin (Homo sapiens, UniProt P14151).
T1 sequence (P14151 whole entry): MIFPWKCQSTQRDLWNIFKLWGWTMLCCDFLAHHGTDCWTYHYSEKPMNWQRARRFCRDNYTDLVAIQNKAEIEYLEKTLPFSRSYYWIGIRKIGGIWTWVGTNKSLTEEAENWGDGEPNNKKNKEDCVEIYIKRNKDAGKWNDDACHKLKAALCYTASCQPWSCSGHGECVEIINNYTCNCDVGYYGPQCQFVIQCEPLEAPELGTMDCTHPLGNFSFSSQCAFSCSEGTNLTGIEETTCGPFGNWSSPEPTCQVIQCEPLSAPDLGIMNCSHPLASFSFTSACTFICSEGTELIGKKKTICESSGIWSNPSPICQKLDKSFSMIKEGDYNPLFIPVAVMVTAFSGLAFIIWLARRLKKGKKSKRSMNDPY
The test can be described thus: Inhibitory concentration against blocking of Selectin L during migration of inflammatory cells to inflammatory site.

The next test has as its target T2, P-selectin (Homo sapiens, UniProt P16109).
T2 sequence (P16109 whole entry): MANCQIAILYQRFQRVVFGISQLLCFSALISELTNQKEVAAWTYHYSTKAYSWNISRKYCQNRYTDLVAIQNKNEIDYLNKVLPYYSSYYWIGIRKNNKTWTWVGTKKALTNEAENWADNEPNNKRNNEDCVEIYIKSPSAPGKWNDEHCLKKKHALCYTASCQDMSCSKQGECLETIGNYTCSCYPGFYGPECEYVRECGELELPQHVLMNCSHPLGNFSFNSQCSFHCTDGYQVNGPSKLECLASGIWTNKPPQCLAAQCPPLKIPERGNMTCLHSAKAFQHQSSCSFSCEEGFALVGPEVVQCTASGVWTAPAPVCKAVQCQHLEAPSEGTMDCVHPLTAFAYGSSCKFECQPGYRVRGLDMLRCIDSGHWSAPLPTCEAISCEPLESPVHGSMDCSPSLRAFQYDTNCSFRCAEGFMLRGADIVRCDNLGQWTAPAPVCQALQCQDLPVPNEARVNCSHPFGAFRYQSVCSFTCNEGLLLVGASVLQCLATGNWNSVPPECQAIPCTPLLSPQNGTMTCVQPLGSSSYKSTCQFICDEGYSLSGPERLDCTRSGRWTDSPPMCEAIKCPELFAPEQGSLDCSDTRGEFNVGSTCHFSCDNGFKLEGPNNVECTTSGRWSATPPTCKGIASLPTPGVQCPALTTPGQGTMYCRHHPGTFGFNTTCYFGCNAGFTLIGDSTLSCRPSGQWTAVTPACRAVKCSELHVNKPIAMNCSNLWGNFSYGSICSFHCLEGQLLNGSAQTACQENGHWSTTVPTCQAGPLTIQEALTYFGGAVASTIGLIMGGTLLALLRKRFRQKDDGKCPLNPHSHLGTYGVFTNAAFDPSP
The test can be described thus: Inhibitory concentration against blocking of Selectin P during migration of inflammatory cells to inflammatory site.

The target in a further test is T3, E-selectin (Homo sapiens, UniProt P16581).
T3 sequence (P16581 whole entry): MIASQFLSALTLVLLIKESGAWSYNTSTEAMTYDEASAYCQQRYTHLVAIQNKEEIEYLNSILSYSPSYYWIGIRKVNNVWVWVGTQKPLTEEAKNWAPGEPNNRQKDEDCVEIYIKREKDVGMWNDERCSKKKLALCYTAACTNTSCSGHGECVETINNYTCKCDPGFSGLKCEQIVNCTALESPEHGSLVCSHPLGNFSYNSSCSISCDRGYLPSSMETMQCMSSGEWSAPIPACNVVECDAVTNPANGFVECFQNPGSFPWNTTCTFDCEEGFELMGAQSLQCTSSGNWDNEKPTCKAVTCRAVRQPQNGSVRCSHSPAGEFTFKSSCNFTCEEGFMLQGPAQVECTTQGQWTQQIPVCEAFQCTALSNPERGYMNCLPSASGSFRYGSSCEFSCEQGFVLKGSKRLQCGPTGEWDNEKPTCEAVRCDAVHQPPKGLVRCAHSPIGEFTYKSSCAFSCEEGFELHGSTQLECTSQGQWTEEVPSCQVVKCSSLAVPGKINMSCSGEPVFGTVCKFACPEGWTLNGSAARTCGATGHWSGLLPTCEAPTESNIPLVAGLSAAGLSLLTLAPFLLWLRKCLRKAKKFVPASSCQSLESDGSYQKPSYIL
The test can be described thus: Inhibitory concentration against blocking of E-selectin during migration of inflammatory cells to inflammatory site.

Consider `CC(=O)N[C@H]1[C@H]([C@H](O)[C@H](O)CO)O[C@@](O[C@H]2[C@@H](O)[C@@H](CO)O[C@@H](O[C@@H]([C@H](O[C@@H]3O[C@@H](C)[C@@H](O)[C@@H](O)[C@@H]3O)[C@H](C=O)NC(C)=O)[C@H](O)CO)[C@@H]2O)(C(=O)O)C[C@@H]1O` [SIALYL LEWIS X], for which the IC50 at L-selectin and on P-selectin was over 1000 µM throughout.
With `CC1OC(OC2C(O)COC(CO)C2OC2OC(CO)C(O)C(OS(=O)(=O)O)C2O)C(O)C(O)C1O` (stereo not given), the results for the half-inhibitory concentration (IC50) on L-selectin, against E-selectin and against P-selectin were over 1000 µM, over 1000 µM and 300 µM, respectively.
